Data on four compounds can be found in patent US9474790B2, “Stable, protracted GLP-1/glucagon receptor co-agonists for medical use” (Novo Nordisk A/S, priority 2013, dated 2016).

Each structure is given as a SMILES string. pIC50: −log10 of the molar value. Numbered stars: 1 amine (or outer) side, 2 acyl side, 3 side chain; on linkers, the order of the positions; unused ones are H or OH. Square brackets hold non-standard residues; d marks the D form. Side chains are listed from the residue outwards. Peptide text beside a SMILES is read from it. * marks the point of attachment. C18 diacid = O=C(O)CCCCCCCCCCCCCCCCC(=O)*; γGlu = O=C(O)[C@H](CCC(=O)[*:2])N[*:1]; Ac4c = NC1(C(=O)O)CCC1; AEEA = NCCOCCOCC(=O)O; Aib = CC(C)(N)C(=O)O

One data set addresses T1, human GLP-1 receptor (Homo sapiens, UniProt P43220).
T1 construct: expressed in transfected cells; host or cells: BHK cells (parent BHKTS13), clone FCW467-12A/KZ10-1, with CRE luciferase
The data set is described as follows: GLP-1 receptor binding, 125I-GLP-1 displacement SPA on isolated membranes. The following applies: displacement of 125I-GLP-1 from membranes; read-out: IC50 GLP-1R. The method in brief: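 Test derivatives, serially diluted, competed with 125I-GLP-1(7-36)NH2 for the human GLP-1 receptor on BHK membranes, read by WGA-bead scintillation proximity after 2 h at 30°C, pH 7.4 HEPES/EGTA/MgCl2 buffer. Final serum albumin was either ≤0.001% or 2.0%; IC50 from non-linear fit.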

Data set [1] can be described thus: Chemical stability assessment by RP-UPLC. In kind it is physicochemical. The following applies: 333 μM, 8 mM phosphate buffer pH 7.3, 37° C. vs 5° C. In short, it runs like this:
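Purity loss = (purity after 14 days at 5° C. minus that at 37° C.) relative to the 5° C. value, purity being main-peak area % by RP-UPLC with UV at 215 nm. Samples were 333 μM in 8 mM phosphate, pH 7.3; gradient adjusted for outlying retention times.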

T1 sequence (P43220 24-463): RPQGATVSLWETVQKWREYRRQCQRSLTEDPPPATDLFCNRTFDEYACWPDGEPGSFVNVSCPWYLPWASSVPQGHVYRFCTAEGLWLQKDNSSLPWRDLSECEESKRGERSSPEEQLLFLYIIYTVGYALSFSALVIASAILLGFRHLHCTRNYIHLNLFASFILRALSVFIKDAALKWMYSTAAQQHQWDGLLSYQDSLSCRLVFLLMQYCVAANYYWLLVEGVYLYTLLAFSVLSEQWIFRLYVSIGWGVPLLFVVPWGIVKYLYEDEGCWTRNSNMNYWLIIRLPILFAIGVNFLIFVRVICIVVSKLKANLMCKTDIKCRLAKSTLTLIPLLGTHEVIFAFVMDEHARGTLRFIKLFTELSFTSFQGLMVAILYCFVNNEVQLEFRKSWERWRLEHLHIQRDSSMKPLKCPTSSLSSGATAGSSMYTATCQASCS

Consider `CC(C)C[C@H](NC(=O)[C@H](Cc1ccc(O)cc1)NC(=O)[C@H](CCCCN)NC(=O)[C@H](CO)NC(=O)[C@H](CC(C)C)NC(=O)[C@H](CC(=O)O)NC(=O)[C@H](CO)NC(=O)[C@@H](NC(=O)[C@H](Cc1ccccc1)NC(=O)[C@@H](NC(=O)CNC(=O)[C@H](CCC(N)=O)NC(=O)C(C)(C)NC(=O)[C@@H](N)Cc1c[nH]cn1)[C@@H](C)O)[C@@H](C)O)C(=O)N[C@@H](CC(=O)O)C(=O)N[C@@H](C)C(=O)N[C@@H](CCCNC(=N)N)C(=O)N[C@@H](CCCNC(=N)N)C(=O)N[C@@H](C)C(=O)N[C@@H](CCCNC(=N)N)C(=O)N[C@@H](CC(=O)O)C(=O)N[C@@H](Cc1ccccc1)C(=O)N[C@H](C(=O)N[C@@H](CCC(N)=O)C(=O)N[C@@H](Cc1c[nH]c2ccccc12)C(=O)N[C@@H](CC(C)C)C(=O)N[C@@H](CC(C)C)C(=O)N[C@@H](CO)C(=O)N[C@@H](CCCCNC(=O)CC[C@H](NC(=O)CC[C@H](NC(=O)COCCOCCNC(=O)COCCOCCNC(=O)CC[C@H](NC(=O)CCCCCCCCCCCCCCCCC(=O)O)C(=O)O)C(=O)O)C(=O)O)C(N)=O)C(C)C` [Example 66, N^ε29-[(4S)-4-carboxy-4-[[(4S)-4-carboxy-4-[[2-[2-[2-[[2-[2-[2-[[(4S)-4-carboxy-4-(17-carboxyheptadecanoylamino)butanoyl]amino]ethoxy]ethoxy]acetyl]amino]ethoxy]ethoxy]acetyl]amino]butanoyl]amino]butanoyl]-[Aib2,Leu10,Ala16,Arg20,Leu27,Ser28,Lys29]-Glucagon amide] (H-H[Aib]QGTFTSDLSKYLDARRARDFVQWLLSK([γGlu-γGlu-AEEA-AEEA-γGlu-C18 diacid])-NH2; N-terminus assumed), for which the pIC50 at human GLP-1 receptor was 9.22. Also, in data set [1], the “Purity loss; 14 days at 37° C.” value is on record as 2%.

On to `CC(C)C[C@H](NC(=O)[C@H](Cc1ccc(O)cc1)NC(=O)[C@H](CCCCN)NC(=O)[C@H](CO)NC(=O)[C@H](CC(C)C)NC(=O)[C@H](CC(=O)O)NC(=O)[C@H](CO)NC(=O)[C@@H](NC(=O)[C@H](Cc1ccccc1)NC(=O)[C@@H](NC(=O)CNC(=O)[C@H](CCC(N)=O)NC(=O)C(C)(C)NC(=O)[C@@H](N)Cc1c[nH]cn1)[C@@H](C)O)[C@@H](C)O)C(=O)N[C@@H](CCC(=O)O)C(=O)N[C@@H](CO)C(=O)N[C@@H](CCCNC(=N)N)C(=O)N[C@@H](CCCNC(=N)N)C(=O)N[C@@H](C)C(=O)N[C@@H](CCCNC(=N)N)C(=O)N[C@@H](CCC(=O)O)C(=O)N[C@@H](Cc1ccccc1)C(=O)N[C@H](C(=O)N[C@@H](CCC(N)=O)C(=O)N[C@@H](Cc1c[nH]c2ccccc12)C(=O)N[C@@H](CC(C)C)C(=O)N[C@@H](CC(C)C)C(=O)N[C@@H](CCCCNC(=O)CC[C@H](NC(=O)CC[C@H](NC(=O)[C@H](CO)NC(=O)[C@H](CCC(=O)O)NC(=O)[C@H](CO)NC(=O)CC[C@H](NC(=O)CC[C@H](NC(=O)CCCCCCCCCCCCCCCCC(=O)O)C(=O)O)C(=O)O)C(=O)O)C(=O)O)C(=O)N[C@H](C(N)=O)[C@@H](C)O)C(C)C` [Example 67, N^ε28-[(4S)-4-carboxy-4-[[(4S)-4-carboxy-4-[[(2S)-2-[[(2S)-4-carboxy-2-[[(2S)-2-[[(4S)-4-carboxy-4-[[(4S)-4-carboxy-4-(17-carboxyheptadecanoylamino)butanoyl]amino]butanoyl]amino]-3-hydroxypropanoyl]amino]butanoyl]amino]-3-hydroxypropanoyl]amino]butanoyl]amino]butanoyl]-[Aib2,Leu10,Glu15,Arg20,Glu21,Leu27,Lys28]-Glucagon amide] (H-H[Aib]QGTFTSDLSKYLESRRAREFVQWLLK([γGlu-γGlu-Ser-Glu-Ser-γGlu-γGlu-C18 diacid])T-NH2; N-terminus assumed), for which the pIC50 on human GLP-1 receptor was 9.52. Besides, in data set [1], the “Purity loss; 14 days at 37° C.” value was 4%.

Take `CC(C)C[C@H](NC(=O)[C@H](Cc1ccc(O)cc1)NC(=O)[C@H](CCCCN)NC(=O)[C@H](CO)NC(=O)[C@H](CC(C)C)NC(=O)[C@H](CC(=O)O)NC(=O)[C@H](CO)NC(=O)[C@@H](NC(=O)[C@H](Cc1ccccc1)NC(=O)[C@@H](NC(=O)CNC(=O)[C@H](CCC(N)=O)NC(=O)C1(NC(=O)[C@@H](N)Cc2c[nH]cn2)CCC1)[C@@H](C)O)[C@@H](C)O)C(=O)N[C@@H](CCC(=O)O)C(=O)N[C@@H](CO)C(=O)N[C@@H](CCCCN)C(=O)N[C@@H](CCCNC(=N)N)C(=O)N[C@@H](C)C(=O)N[C@@H](CCCNC(=N)N)C(=O)N[C@@H](CCC(=O)O)C(=O)N[C@@H](Cc1ccccc1)C(=O)N[C@H](C(=O)N[C@@H](CCC(N)=O)C(=O)N[C@@H](Cc1c[nH]c2ccccc12)C(=O)N[C@@H](CC(C)C)C(=O)N[C@@H](CC(C)C)C(=O)N[C@@H](CCCCNC(=O)CC[C@H](NC(=O)CC[C@H](NC(=O)[C@H](CO)NC(=O)[C@H](CCC(=O)O)NC(=O)[C@H](CO)NC(=O)CC[C@H](NC(=O)CC[C@H](NC(=O)CCCCCCCCCCCCCCCCC(=O)O)C(=O)O)C(=O)O)C(=O)O)C(=O)O)C(=O)N[C@H](C(N)=O)[C@@H](C)O)C(C)C` [Example 68, N^ε28-[(4S)-4-carboxy-4-[[(4S)-4-carboxy-4-[[(2S)-2-[[(2S)-4-carboxy-2-[[(2S)-2-[[(4S)-4-carboxy-4-[[(4S)-4-carboxy-4-(17-carboxyheptadecanoylamino)butanoyl]amino]butanoyl]amino]-3-hydroxypropanoyl]amino]butanoyl]amino]-3-hydroxypropanoyl]amino]butanoyl]amino]butanoyl]-[Acb2,Leu10,Glu15,Lys17,Arg20,Glu21,Leu27,Lys28]-Glucagon amide] (H-H[Ac4c]QGTFTSDLSKYLESKRAREFVQWLLK([γGlu-γGlu-Ser-Glu-Ser-γGlu-γGlu-C18 diacid])T-NH2; N-terminus assumed): the pIC50 at human GLP-1 receptor was 9.52. For the same compound, in data set [1], the “Purity loss; 14 days at 37° C.” value is 3%.

Regarding `CC(C)C[C@H](NC(=O)[C@H](Cc1ccc(O)cc1)NC(=O)[C@H](CCCCN)NC(=O)[C@H](CO)NC(=O)[C@H](CC(C)C)NC(=O)[C@H](CC(=O)O)NC(=O)[C@H](CO)NC(=O)[C@@H](NC(=O)[C@H](Cc1ccccc1)NC(=O)[C@@H](NC(=O)CNC(=O)[C@H](CCC(N)=O)NC(=O)C(C)(C)NC(=O)[C@@H](N)Cc1c[nH]cn1)[C@@H](C)O)[C@@H](C)O)C(=O)N[C@@H](CCC(=O)O)C(=O)N[C@@H](CO)C(=O)N[C@@H](CCCCN)C(=O)N[C@@H](CCCNC(=N)N)C(=O)N[C@@H](C)C(=O)N[C@@H](CCCNC(=N)N)C(=O)N[C@@H](CO)C(=O)N[C@@H](Cc1ccccc1)C(=O)N[C@H](C(=O)N[C@@H](CCC(N)=O)C(=O)N[C@@H](Cc1c[nH]c2ccccc12)C(=O)N[C@@H](CC(C)C)C(=O)N[C@@H](CC(C)C)C(=O)N[C@@H](CCCCNC(=O)CC[C@H](NC(=O)CC[C@H](NC(=O)[C@H](CO)NC(=O)[C@H](CCC(=O)O)NC(=O)[C@H](CO)NC(=O)CC[C@H](NC(=O)CC[C@H](NC(=O)CCCCCCCCCCCCCCCCC(=O)O)C(=O)O)C(=O)O)C(=O)O)C(=O)O)C(=O)N[C@H](C(N)=O)[C@@H](C)O)C(C)C` [Example 69, N^ε28-[(4S)-4-carboxy-4-[[(4S)-4-carboxy-4-[[(2S)-2-[[(2S)-4-carboxy-2-[[(2S)-2-[[(4S)-4-carboxy-4-[[(4S)-4-carboxy-4-(17-carboxyheptadecanoylamino)butanoyl]amino]butanoyl]amino]-3-hydroxypropanoyl]amino]butanoyl]amino]-3-hydroxypropanoyl]amino]butanoyl]amino]butanoyl]-[Aib2,Leu10,Glu15,Lys17,Arg20,Ser21,Leu27,Lys28]-Glucagon amide] (H-H[Aib]QGTFTSDLSKYLESKRARSFVQWLLK([γGlu-γGlu-Ser-Glu-Ser-γGlu-γGlu-C18 diacid])T-NH2; N-terminus assumed), the pIC50 on human GLP-1 receptor was 9.70. Also, in data set [1], the “Purity loss; 14 days at 37° C.” value came out at 2%.
